Assay [1] addresses T1, CCR3 (Homo sapiens, UniProt P51677).
T1 sequence (P51677 1-355): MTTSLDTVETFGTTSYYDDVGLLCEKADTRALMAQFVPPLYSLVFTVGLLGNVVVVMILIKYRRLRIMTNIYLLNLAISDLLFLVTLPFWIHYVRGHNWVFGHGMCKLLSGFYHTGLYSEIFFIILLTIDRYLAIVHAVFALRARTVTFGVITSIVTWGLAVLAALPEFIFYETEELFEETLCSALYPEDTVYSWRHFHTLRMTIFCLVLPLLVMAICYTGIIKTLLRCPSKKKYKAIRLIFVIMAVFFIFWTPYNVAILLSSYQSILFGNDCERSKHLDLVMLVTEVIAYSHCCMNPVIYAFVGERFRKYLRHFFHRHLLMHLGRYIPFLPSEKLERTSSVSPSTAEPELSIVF
Nature of the assay: Eotaxin-2-induced shape change in eosinophils in human blood in vitro. It is filed as cell-based. Also noted: Human blood, collected by venous puncture into 9 mL lithium-heparin tubes; endogenous in cells; host or cells: eosinophils in human whole blood. The note with it: eotaxin-2 E/[A] curve displacement, 4 min at 37° C., flow cytometry forward scatter, read-out: CCR3 pA2 (converted). (In flow cytometry, cells or beads pass a laser one at a time.)

Another assay deals with T2, human H1 receptor (Homo sapiens, UniProt P35367).
T2 construct: purchased Euroscreen SA, Brussels, Belgium ES-390-M; host or cells: CHO-K1
T2 sequence (P35367 whole entry): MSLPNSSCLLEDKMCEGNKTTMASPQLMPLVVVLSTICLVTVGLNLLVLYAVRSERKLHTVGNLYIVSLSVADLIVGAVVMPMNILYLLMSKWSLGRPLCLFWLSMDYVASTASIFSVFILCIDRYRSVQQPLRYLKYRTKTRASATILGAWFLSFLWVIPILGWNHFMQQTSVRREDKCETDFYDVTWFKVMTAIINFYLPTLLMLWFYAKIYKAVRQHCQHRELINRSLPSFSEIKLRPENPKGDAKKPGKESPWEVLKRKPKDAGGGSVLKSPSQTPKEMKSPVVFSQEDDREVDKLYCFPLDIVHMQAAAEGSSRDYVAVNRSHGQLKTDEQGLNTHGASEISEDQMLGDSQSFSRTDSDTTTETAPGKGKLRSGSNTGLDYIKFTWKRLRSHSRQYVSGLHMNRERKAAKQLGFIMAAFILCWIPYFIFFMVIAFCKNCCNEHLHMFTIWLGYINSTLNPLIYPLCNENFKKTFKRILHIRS
Nature of the assay: Histamine H1 receptor binding, competition displacement of [3H]-pyrilamine. The note with it: 1 nM [3H]-pyrilamine, membranes from recombinant CHO-K1 cells, 1 hour at room temperature; read-out: H1 pKi (converted).

Assay [2] has as its target T1, CCR3. The experiment in a line: Compound affinity at human recombinant CCR3 receptors, radioligand competition on CHO-K1 cell membranes. Particulars: 2 nM [3H]-4-(2,4-dichloro-3-methylphenoxy)-1'-[4-(methylsulfonyl)benzoyl]-1,4'-bipiperidine, 2 h at 37° C., mean of minimum 2 experiments; for Ki: read-out: CCR3 pKi (converted). Also noted: expressed in transfected cells; host or cells: CHO-K1. It is filed as binding. On the technique in general: Loss of bound radioactivity is the signal in a displacement assay; it reports binding, not function.

In the case of `Cc1c(OC2CCN(CC3CCN([C@@H](Cc4ccc(C#N)cc4)C(=O)O)CC3)CC2)ccc(Cl)c1Cl` [Example 3, (2S)-3-(4-cyanophenyl)-2-[4-[[4-(3,4-dichloro-2-methyl-phenoxy)-1-piperidyl]methyl]-1-piperidyl]-propanoic acid], the Kb on CCR3 [1] was 20 nM. The Ki at human H1 receptor is 31.6 nM; on CCR3 [2], 0.501 nM.

As to `CCc1c(OC2CCN(CC3CCN([C@@H](Cc4ccccc4)C(=O)O)CC3)CC2)ccc(Cl)c1Cl` [Example 13, (2S)-2-[4-[[4-(3,4-dichloro-2-ethyl-phenoxy)-1-piperidyl]methyl]-1-piperidyl]-3-phenylpropanoic acid], at CCR3 [1], the Kb was 200 nM. Also, the Ki on human H1 receptor was 100 nM; at CCR3 [2], 1.26 nM.

On to `Cc1c(OC2CCN(CC3CCN([C@@H](Cc4ccccc4)C(=O)O)CC3)CC2)ccc(C#N)c1Cl` [Example 15, (22S)-2-(4-{[4-(3-chloro-4-cyano-2-methylphenoxy)-piperidin-1-yl]methyl}piperidin-1-yl)-3-phenylpropanoic acid], for which the “CCR3 pKi” value at CCR3 [2] came out at 8.2.

Regarding `CCc1c(OC2CCN(CC3CCN([C@@H](Cc4ccc(F)cc4)C(=O)O)CC3)CC2)ccc(Cl)c1Cl` [Example 14, (2S)-2-[4-[[4-(3,4-dichloro-2-ethyl-phenoxy)-1-piperidyl]methyl]-1-piperidyl]-3-(4-fluorophenyl)-propanoic acid], the Kb at CCR3 [1] is 200 nM. Moreover, the Ki on CCR3 [2] is 0.501 nM.

Regarding `COc1ccccc1C[C@@H](C(=O)O)N1CCC(CN2CCC(Oc3ccc(Cl)c(Cl)c3C)CC2)CC1` [Example 2, (2S)-2-[4-[[4-(3,4-dichloro-2-methyl-phenoxy)-1-piperidyl]methyl]-1-piperidyl]-3-(2-methoxyphenyl)-propanoic acid], on CCR3 [1], the Kb was 20 nM. Moreover, on CCR3 [2], the Ki is 0.631 nM.

Source of the values: US8314127B2, “Piperidine derivatives” (Astrazeneca AB, priority 2005, dated 2012).
